In US9884067B2, “Androgen receptor down-regulating agents and uses thereof” (UNIVERSITY OF MARYLAND EASTERN SHORE, priority 2013, dated 2018):
Where two headings read alike, the source gives them in different places.

Columns and labels:
LNCaP cells = test: MTT colorimetric anti-proliferative assay; type: cell-based, human; details: for GI50: LNCaP, MTT, 7 days; for fold loss/reduction in anti-proliferative activity: relative to lead compound 5 (or parent 32)
Description: The cells were treated for 7 days with renewal of test compound and media on day 4. On the 7th day, medium was renewed and MTT (3-(4,5-dimethylthiazol-2-yl)-2,5-diphenyl-2H-tetrazolium bromide) (Sigma, St Louis, Mo., USA) solution (0.5 mg MTT per ml of media) was added to the medium such that the ratio of MTT: medium was 1:10. The cells were incubated with MTT for 2 hours. The medium was then aspirated and DMSO was added to solubilize the violet MTT-formazan product.

AR = molecular target: T1, AR (Homo sapiens, UniProt P10275, T878A); test: AR down-regulation, western blot analysis in LNCaP cells; type: cell-based; details: 24 h, western blot
T1 construct: host or cells: LNCaP
T1 sequence (P10275 1-920 T878A): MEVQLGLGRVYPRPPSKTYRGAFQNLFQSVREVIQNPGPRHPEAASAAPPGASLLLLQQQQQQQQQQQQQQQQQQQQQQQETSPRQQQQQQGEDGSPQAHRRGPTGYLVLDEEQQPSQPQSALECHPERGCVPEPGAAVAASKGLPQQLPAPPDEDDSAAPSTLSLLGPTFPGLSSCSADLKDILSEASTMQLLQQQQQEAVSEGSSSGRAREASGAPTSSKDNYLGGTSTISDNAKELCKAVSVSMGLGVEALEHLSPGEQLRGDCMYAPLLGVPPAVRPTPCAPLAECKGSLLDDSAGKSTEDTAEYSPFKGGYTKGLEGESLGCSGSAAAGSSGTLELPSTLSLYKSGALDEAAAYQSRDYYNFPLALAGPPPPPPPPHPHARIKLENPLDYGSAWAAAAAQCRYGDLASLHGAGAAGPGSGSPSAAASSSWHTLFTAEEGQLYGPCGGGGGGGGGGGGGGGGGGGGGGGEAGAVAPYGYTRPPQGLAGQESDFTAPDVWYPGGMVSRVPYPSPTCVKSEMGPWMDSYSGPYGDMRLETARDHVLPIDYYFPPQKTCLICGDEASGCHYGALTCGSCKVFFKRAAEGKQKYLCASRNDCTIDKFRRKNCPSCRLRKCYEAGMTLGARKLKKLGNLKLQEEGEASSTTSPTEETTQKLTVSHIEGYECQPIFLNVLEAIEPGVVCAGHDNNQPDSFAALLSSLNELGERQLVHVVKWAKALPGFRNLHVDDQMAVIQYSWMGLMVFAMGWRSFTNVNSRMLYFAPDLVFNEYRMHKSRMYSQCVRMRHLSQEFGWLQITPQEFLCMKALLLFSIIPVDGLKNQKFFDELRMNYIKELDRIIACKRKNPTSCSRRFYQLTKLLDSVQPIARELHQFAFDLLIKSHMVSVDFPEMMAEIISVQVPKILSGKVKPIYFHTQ
Description: For the Western blot analyses, LNCaP or CWR22v1 prostate cancer cells were cultured. The cells were then treated with the indicated compounds and whole cell lysates were prepared using RIPA lysis buffer (Sigma Aldrich) and protease and phosphatase inhibitors (Sigma Aldrich). All of the antibodies were ordered from cell signaling technology. Protein content was determined using the Bradford Assay (Bio-Rad, Hercules, Calif., USA). Protein was subjected to SDS-PAGE and transferred onto nitrocellulosemembrane. Membranes were then incubated with secondary antibody (cell signaling technology) at room temperature for 1 hour. Bands were visualized by chemiluminescence (Millipore). Protein expression was normalized to β-actin and densitometry was carried out using Image J or ImageQuant 5.0 (Molecular Dynamics, Sunnyvale, Calif., USA). CWR22Rv1 cells were used for endogenous levels of splice variant AR-3. Protein levels were analyzed with respective antibodies; full length AR and β-actin antibodies were purchased from cell signaling, antibody specific for splice variant AR-3 was obtained from Dr. Yun Qiu, University of Maryland, School of Medicine, Baltimore.

[1] = Table 4, read-out: GI50 of C-3 modified compounds
[2] = Homo sapiens, 168 h, Table 2, read-out: GI50 of C-17 modified compounds
[3] = Table 2, read-out: GI50 of C-17 modified compounds
[4] = Homo sapiens, 168 h, Table 4, read-out: GI50 of C-3 modified compounds

Work on “3β-(3-(Oxycarbonyl)phenylacetic acid)-17-(1H-benzimidazol-1-yl)-androsta-5,16-diene [Compound 44]” yielded a GI50 (LNCaP cells; [1]) of 7.78 µM.

Compound `CON=C1C=C2CC[C@@H]3[C@H](CC[C@]4(C)C(n5cnc6ccccc65)=CC[C@@H]34)[C@@]2(C)CC1` (mixture of isomers) [Compound 38, 3-((EZ)-O-Methyloxime)-17-(1H-Benzimidazol-1-yl)-androsta-4,16-diene] has a GI50 (LNCaP cells; [1]) of 3.38 µM.

`C[C@]12CCC(=NOCc3ccccc3)C=C1CC[C@@H]1[C@@H]2CC[C@]2(C)C(n3cnc4ccccc43)=CC[C@@H]12` (mixture of isomers) [Compound 39, 3-((EZ)-(O-Phenylmethyl)oxime)-17-(1H-Benzimidazol-1-yl)-androsta-4,16-diene] showed a GI50 (LNCaP cells; [1]) of 5.57 µM.

In the case of `Cc1cc2ncn(C3=CC[C@H]4[C@@H]5CC=C6C[C@@H](O)CC[C@]6(C)[C@H]5CC[C@]34C)c2cc1C` [Compound 17, 3β-Hydroxy-17-(5,6-dimethyl-1H-benzimidazol-1-yl)-androsta-5,16-diene], the melting point is reported as 194 to 196 °C, the “AR down-regulation (ARD) activity, in words” value (“AR down-regulation” below) (AR) is reported as “substantial loss” and the GI50 (LNCaP cells; [2]) is reported as 42.7 µM.

With `C[C@]12CC[C@H](O)CC1=CC[C@@H]1[C@@H]2CC[C@]2(C)C(n3cnc4cc(C#N)ccc43)=CC[C@@H]12` [Compound 18, 3β-Hydroxy-17-(5(6)-nitrile-1H-benzimidazol-1-yl)-androsta-5,16-diene] the “AR down-regulation” value (AR) was “diminished AR down-regulation (ARD) activity” and the GI50 (LNCaP cells; [3]) was 2.81 µM.

With `COc1ccc2ncn(C3=CC[C@H]4[C@@H]5CC=C6C[C@@H](O)CC[C@]6(C)[C@H]5CC[C@]34C)c2c1` [Compound 19, 3β-Hydroxy-17-(6-methoxy-1H-benzimidazol-1-yl)-androsta-5,16-diene] the melting point was 169 to 179 °C, the “AR down-regulation” value (AR) was “no modulation of ARDA” and the GI50 (LNCaP cells; [3]) was 4.26 µM.

For `C[C@]12CC[C@H](O)CC1=CC[C@@H]1[C@@H]2CC[C@]2(C)C(n3cnc4cc5ccccc5cc43)=CC[C@@H]12` [Compound 20, 3β-Hydroxy-17-(1H-benzo[f]benzimidazol-1-yl)-androsta-5,16-diene], the melting point was 150 to 152 °C, the “AR down-regulation” value (AR) was “significant loss of ARDA” and the GI50 (LNCaP cells; [2]) was 19.1 µM.

In the case of `C[C@]12CC[C@H](O)CC1=CC[C@@H]1[C@@H]2CC[C@]2(C)C(n3cnc4c(Cl)ncnc43)=CC[C@@H]12` [Compound 21, 3β-Hydroxy-17-(6-Chloro-9H-purin-9-yl)-androsta-5,16-diene], the melting point is reported as 272 to 274 °C, the GI50 (LNCaP cells; [3]) is reported as 13.5 µM and the “fold loss/reduction in anti-proliferative activity” value (from here on “fold loss/reduction”) (LNCaP cells) is reported as 4 fold.

In the case of `C[C@]12CC[C@H](O)CC1=CC[C@@H]1[C@@H]2CC[C@]2(C)C(n3c(Cl)nc4ccccc43)=CC[C@@H]12` [Compound 22, 3β-Hydroxy-17-(2-chloro-1H-benzimidazol-1-yl)-androsta-5,16-diene], the melting point is reported as 83 to 86 °C, the GI50 (LNCaP cells; [2]) is reported as 10.1 µM and the “fold loss/reduction” value (LNCaP cells) is reported as 3 fold.

In the case of `CC(C)CCNCC1=C(n2cnc3ccccc32)[C@@]2(C)CC[C@H]3[C@@H](CC=C4C[C@@H](O)CC[C@@]43C)[C@@H]2C1` [Compound 25, 3β-Hydroxy-17-(1H-benzimidazol-1-yl)-16-((isopentylamino)methyl)-androsta-5,16-diene], the melting point is reported as 111 to 113 °C and the “AR down-regulation” value (AR) is reported as “significant loss of ARD”.

In the case of `C[C@]12CC[C@H](O)CC1=CC[C@@H]1[C@@H]2CC[C@]2(C)C(n3cnc4ccccc43)=C(CNc3ccccc3)C[C@@H]12` [Compound 28, 3β-Hydroxy-17-(1H-benzimidazol-1-yl)-16-((phenylamino)methyl)-androsta-5,16-diene], the melting point is reported as 130 to 132 °C, the “AR down-regulation” value (AR) is reported as “significant loss of ARD” and the GI50 (LNCaP cells; Homo sapiens, 168 h, LNCaP cells, Table 3, read-out: GI50 of C-16 modified compounds) is reported as 22.1 µM.

`C[C@]12CCC(=O)C=C1CC[C@@H]1[C@@H]2CC[C@]2(C)C(n3cnc4ccccc43)=CC[C@@H]12` [Compound 32, 17-(1H-Benzimidazol-1-yl)-androsta-4,16-dien-3-one] gave a GI50 (LNCaP cells; [4]) of 2.64 µM.

For `C[C@]12CCC(=O)CC1=CC[C@@H]1[C@@H]2CC[C@]2(C)C(n3cnc4ccccc43)=CC[C@@H]12` [Compound 33, 17-(1H-Benzimidazol-1-yl)-androsta-5,16-dien-3-one], the melting point was 170 to 172 °C, the GI50 (LNCaP cells; [4]) was 16 µM and the “fold loss/reduction” value (LNCaP cells) was ~5 fold.

`C[C@]12CC[C@H](OS(C)(=O)=O)CC1=CC[C@@H]1[C@@H]2CC[C@]2(C)C(n3cnc4ccccc43)=CC[C@@H]12` [Compound 34, 3β-Mesyloxy-17-(1H-benzimidazol-1-yl)-androsta-5,16-dien] gave a GI50 (LNCaP cells; [4]) of 42.1 µM.

`Cc1ccc(S(=O)(=O)O[C@H]2CC[C@@]3(C)C(=CC[C@@H]4[C@@H]3CC[C@]3(C)C(n5cnc6ccccc65)=CC[C@@H]43)C2)cc1` [Compound 35, 3β-Tosyloxy-17-(1H-benzimidazol-1-yl)-androsta-5,16-dien] gave a melting point of 139 to 141 °C and a GI50 (LNCaP cells; [1]) of 47.2 µM.

With `CC1(O)C=C2CC[C@@H]3[C@H](CC[C@]4(C)C(n5cnc6ccccc65)=CC[C@@H]34)[C@@]2(C)CC1` (stereo partly drawn) [Compound 40, 3-Methyl-3-hydroxy-17-(1H-benzimidazol-1-yl)-androsta-4,16-diene] the melting point was 95 to 97 °C, the GI50 (LNCaP cells; [4]) was 13.3 µM and the “fold loss/reduction” value (LNCaP cells) was ~5 fold.

`C[C@]12CC[C@H](OC(=O)C3CC=CCC3C(=O)O)CC1=CC[C@@H]1[C@@H]2CC[C@]2(C)C(n3cnc4ccccc43)=CC[C@@H]12` (stereo partly drawn) [Compound 45, 3β-(6-(Cyclohex-3-enecaboxylic acid)carboxylate)-17-(1H-benzimidazol-1-yl)-androsta-5,16-diene] gave a GI50 (LNCaP cells; [1]) of 8.22 µM.

`C[C@]12CC[C@H](OC(=O)COCC(=O)O)CC1=CC[C@@H]1[C@@H]2CC[C@]2(C)C(n3cnc4ccccc43)=CC[C@@H]12` [Compound 46, 3β-(Oxycarbonyl-(methoxy)acetic acid)-17-(1H-benzimidazol-1-yl)-androsta-5,16-diene] gave a GI50 (LNCaP cells; [1]) of 9.13 µM.

With `C[C@]12CC[C@H](OC(=O)n3cncn3)CC1=CC[C@@H]1[C@@H]2CC[C@]2(C)C(n3cnc4ccccc43)=CC[C@@H]12` [Compound 49, 3β-(1H-1,2,4-Triazole-1-carboxylate)-17-(1H-benzimidazol-1-yl)-androsta-5,16-diene] the GI50 (LNCaP cells; [1]) was 6.67 µM and the “fold decrease in anti-proliferative activity” value (LNCaP cells; relative to 47) was ~8 fold.
